row,logP,SMILES
1,3.12,CSc1nc(N)nc(C(Cl)(Cl)Cl)n1
2,4.93,ClC(Cl)(Cl)c1nc(NCc2ccccc2)nc(C(Cl)(Cl)Cl)n1
3,4.1,Cc1nc(C(Cl)(Cl)Cl)nc(C(Cl)(Cl)Cl)n1
4,3.86,Cc1nc(NCc2ccccc2)nc(C(Cl)(Cl)Cl)n1
5,3.29,CCCNc1nc(C)nc(C(Cl)(Cl)Cl)n1
6,4.39,ClC(Cl)(Cl)c1nc(Nc2ccccc2)nc(C(Cl)(Cl)Cl)n1
7,3.41,Cc1nc(Nc2ccccc2)nc(C(Cl)(Cl)Cl)n1
8,3.81,O=C1OC(=Nc2ccc(Cl)cc2)C2=C1CCCC2
9,3.64,COc1nc(C(Cl)(Cl)Cl)nc(C(Cl)(Cl)Cl)n1
10,4.09,CCCNc1nc(C(Cl)(Cl)Cl)nc(C(Cl)(Cl)Cl)n1
11,2.39,COc1nc(N)nc(C(Cl)(Cl)Cl)n1
12,3.78,Cc1nc(N(C)C)nc(C(Cl)(Cl)Cl)n1
13,4.94,CN(C)c1nc(C(Cl)(Cl)Cl)nc(C(Cl)(Cl)Cl)n1
14,3.23,CNc1nc(C(Cl)(Cl)Cl)nc(C(Cl)(Cl)Cl)n1
15,2.48,Nc1nc(C(Cl)(Cl)Cl)nc(C(Cl)(Cl)Cl)n1
16,4.42,CSc1nc(C(Cl)(Cl)Cl)nc(C(Cl)(Cl)Cl)n1
17,2.39,CNc1nc(C)nc(C(Cl)(Cl)Cl)n1

row,SMILES,logP
1,Nc1nc(N)nc(C(Cl)(Cl)Cl)n1,1.24
2,ClC(Cl)(Cl)c1nc(C(Cl)(Cl)Cl)nc(C(Cl)(Cl)Cl)n1,3.75
3,Cc1nc(N)nc(C(Cl)(Cl)Cl)n1,1.77
4,O=C1C2=C(CCCC2)C(=O)N1c1ccc(Cl)cc1,3.26

# Reference: the SangsterLogP compilation
